Values quoted from earlier work in paper PMC7587962, “Evaluation of Cytotoxicity and α-Glucosidase Inhibitory Activity of Amide and Polyamino-Derivatives of Lupane Triterpenoids” (Molecules, 2020).

Columns and labels:
SK-OV-3 = system: SK-OV-3; parameters: method as in PMID 25405285; conditions: standard drugs used by NCI as control; cited from earlier work
CAKI-1 = system: CAKI-1; parameters: method as in PMID 25405285; conditions: standard drugs used by NCI as control; cited from earlier work
SW-620 = system: SW-620; parameters: method as in PMID 25405285; conditions: standard drugs used by NCI as control; cited from earlier work
786-0 = system: 786-0; parameters: method as in PMID 25405285; conditions: standard drugs used by NCI as control; cited from earlier work
U251 = system: U251; parameters: method as in PMID 25405285; conditions: standard drugs used by NCI as control; cited from earlier work
SK-MEL-2 = system: SK-MEL-2; parameters: method as in PMID 25405285; conditions: standard drugs used by NCI as control; cited from earlier work
HL-60(TB) = conditions: standard drugs used by NCI as control; cited from earlier work
COLO 205 = system: COLO 205; parameters: method as in PMID 25405285; conditions: standard drugs used by NCI as control; cited from earlier work
OVCAR-5 = system: OVCAR-5; parameters: method as in PMID 25405285; conditions: standard drugs used by NCI as control; cited from earlier work
SF-539 = system: SF-539; parameters: method as in PMID 25405285; conditions: standard drugs used by NCI as control; cited from earlier work
MDA-MB-231/ATCC = system: MDA-MB-231/ATCC; parameters: method as in PMID 25405285; conditions: MDA-MB-31/ATCC; standard drugs used by NCI as control; cited from earlier work
SK-MEL-28 = system: SK-MEL-28; parameters: method as in PMID 25405285; conditions: standard drugs used by NCI as control; cited from earlier work
OVCAR-4 = system: OVCAR-4; parameters: method as in PMID 25405285; conditions: standard drugs used by NCI as control; cited from earlier work
NCI-H226 = system: NCI-H226; parameters: method as in PMID 25405285; conditions: standard drugs used by NCI as control; cited from earlier work
MDA-MB-468 = system: MDA-MB-468; parameters: method as in PMID 25405285; conditions: standard drugs used by NCI as control; cited from earlier work
KM12 = system: KM12; parameters: method as in PMID 25405285; conditions: standard drugs used by NCI as control; cited from earlier work
HOP-62 = system: HOP-62; parameters: method as in PMID 25405285; conditions: standard drugs used by NCI as control; cited from earlier work
SR = system: SR; parameters: method as in PMID 25405285; conditions: standard drugs used by NCI as control; cited from earlier work
NCI-H460 = system: NCI-H460; parameters: method as in PMID 25405285; conditions: standard drugs used by NCI as control; cited from earlier work
SF-268 = system: SF-268; parameters: method as in PMID 25405285; conditions: standard drugs used by NCI as control; cited from earlier work
RPMI-8226 = system: RPMI-8226; parameters: method as in PMID 25405285; conditions: standard drugs used by NCI as control; cited from earlier work
NCI/ADR-RES = system: NCI/ADR-RES; parameters: method as in PMID 25405285; conditions: standard drugs used by NCI as control; cited from earlier work
PC-3 = system: PC-3; parameters: method as in PMID 25405285; conditions: standard drugs used by NCI as control; cited from earlier work
A498 = system: A498; parameters: method as in PMID 25405285; conditions: standard drugs used by NCI as control; cited from earlier work
ACHN = system: ACHN; parameters: method as in PMID 25405285; conditions: standard drugs used by NCI as control; cited from earlier work
MOLT-4 = system: MOLT-4; parameters: method as in PMID 25405285; conditions: standard drugs used by NCI as control; cited from earlier work
SK-MEL-5 = system: SK-MEL-5; parameters: method as in PMID 25405285; conditions: standard drugs used by NCI as control; cited from earlier work
HT29 = system: HT29; parameters: method as in PMID 25405285; conditions: standard drugs used by NCI as control; cited from earlier work
CCRF-CEM = system: CCRF-CEM; parameters: method as in PMID 25405285; conditions: standard drugs used by NCI as control; cited from earlier work
UO-31 = system: UO-31; parameters: method as in PMID 25405285; conditions: standard drugs used by NCI as control; cited from earlier work
OVCAR-8 = system: OVCAR-8; parameters: method as in PMID 25405285; conditions: standard drugs used by NCI as control; cited from earlier work
SNB-75 = system: SNB-75; parameters: method as in PMID 25405285; conditions: standard drugs used by NCI as control; cited from earlier work
EKVX = system: EKVX; parameters: method as in PMID 25405285; conditions: standard drugs used by NCI as control; cited from earlier work
UACC-257 = system: UACC-257; parameters: method as in PMID 25405285; conditions: standard drugs used by NCI as control; cited from earlier work
DU-145 = system: DU-145; parameters: method as in PMID 25405285; conditions: standard drugs used by NCI as control; cited from earlier work
UACC-62 = system: UACC-62; parameters: method as in PMID 25405285; conditions: standard drugs used by NCI as control; cited from earlier work

For COc1cccc2c1C(=O)c1c(O)c3c(c(O)c1C2=O)C[C@@](O)(C(=O)CO)C[C@@H]3O[C@H]1C[C@H](N)[C@H](O)[C@H](C)O1 [DRB, doxorubicin], which GI50 (SK-OV-3) is on record?
The GI50 was 220 nM.

What about the GI50 (CAKI-1) of the same compound?
The GI50 was 950 nM.

What about the GI50 (SW-620) of the same compound?
The GI50 was 90 nM.

And the GI50 (786-0)?
The GI50 was 130 nM.

What about the GI50 (U251) of the same compound?
Its GI50 is 40 nM.

What about the GI50 (SK-MEL-2) of the same compound?
Its GI50 is 170 nM.

And the GI50 (HL-60(TB))?
The GI50 was 190 nM.

What about the GI50 (COLO 205) of the same compound?
The GI50 was 180 nM.

What about the GI50 (OVCAR-5) of the same compound?
The GI50 was 410 nM.

And the GI50 (SF-539)?
Its GI50 is 120 nM.

And the GI50 (MDA-MB-231/ATCC)?
The GI50 was 510 nM.

What about the GI50 (SK-MEL-28) of the same compound?
Its GI50 is 210 nM.

What about the GI50 (OVCAR-4) of the same compound?
The GI50 was 370 nM.

What about the GI50 (NCI-H226) of the same compound?
The GI50 was 50 nM.

What about the GI50 (MDA-MB-468) of the same compound?
Its GI50 is 50 nM.

And the GI50 (KM12)?
The GI50 was 270 nM.

And the GI50 (HOP-62)?
Its GI50 is 70 nM.

What about the GI50 (SR) of the same compound?
Its GI50 is 30 nM.

And the GI50 (NCI-H460)?
Its GI50 is 20 nM.

And the GI50 (SF-268)?
The GI50 was 100 nM.

What about the GI50 (RPMI-8226) of the same compound?
Its GI50 is 80 nM.

And the GI50 (NCI/ADR-RES)?
Its GI50 is 7160 nM.

And the GI50 (PC-3)?
The GI50 was 320 nM.

What about the GI50 (A498) of the same compound?
Its GI50 is 100 nM.

And the GI50 (ACHN)?
Its GI50 is 80 nM.

What about the GI50 (MOLT-4) of the same compound?
The GI50 was 30 nM.

And the GI50 (SK-MEL-5)?
The GI50 was 80 nM.

What about the GI50 (HT29) of the same compound?
The GI50 was 120 nM.

What about the GI50 (CCRF-CEM) of the same compound?
The GI50 was 80 nM.

And the GI50 (UO-31)?
The GI50 was 490 nM.

What about the GI50 (OVCAR-8) of the same compound?
Its GI50 is 100 nM.

And the GI50 (SNB-75)?
The GI50 was 70 nM.

And the GI50 (EKVX)?
Its GI50 is 410 nM.

What about the GI50 (UACC-257) of the same compound?
The GI50 was 140 nM.

And the GI50 (DU-145)?
Its GI50 is 110 nM.

What about the GI50 (UACC-62) of the same compound?
Its GI50 is 120 nM.
